Measured values reported in patent publication US20020110604A1, “Composition exhibiting synergistic antioxidant activity” (Ashni Naturaceuticals, Inc., priority 2000, published 2002).

Assay: Total Oxyradical Scavenging Capacity (TOSC) Assay; synergy by CalcuSyn median-effect analysis
Assay type: biochemical
Settings: TOSC antioxidant capacity; pure compounds, astaxanthin alone or combined at the stated ratio
Method: Cm is determined from the x-intercept of the median-effect plot. The fraction affected by the concentration of the test material is fa and the fraction unaffected by the concentration is fu (fu=1−fa). The exponent m is the parameter signifying the sigmoidicity or shape of the dose-effect curve. It is estimated by the slope of the median-effect plot. […] The goodness of fit for the data to the median-effect equation is represented by the linear correlation coefficient r of the median-effect plot. […] Synergy of test components is quantified using the combination index (CI) parameter. […] The equation determines only the additive effect rather than synergism or antagonism.

Structure (SMILES): CC1=C(/C=C/C(C)=C/C=C/C(C)=C/C=C/C=C(C)/C=C/C=C(C)/C=C/C2=C(C)C(=O)[C@@H](O)CC2(C)C)C(C)(C)C[C@H](O)C1=O [astaxanthin, 3, 3′-dihydroxy-β,β-carotene-4, 4′-dieto-β-carotene]
- EC50: 642 µM
